Measurements taken from patent publication US5049550A, “Diadenosine 5', 5'"-p^1, p^4,-tetraphosphate analogs as antithrombotic agents” (Worcester Foundation for Experimental Biology, priority 1988, dated 1991).

Key:
Type in all cases: cell-based
[1] = tested on: rabbit platelet aggregation by ADP; assay: ADP-induced aggregation of rabbit platelets
Method: (§1) Rabbit carotid arterial blood was collected in 3.8% sodium citrate (9 volumes blood to 1 volume citrate). Platelet rich plasma (PRP) and platelet poor plasma (PPP) were prepared by centrifugation at 150 g and 1,000 g for 10 minutes respectively. Aggregation studies were performed in a Chrono-Log (Havertown, Pa.) aggregometer with ADP or collagen as aggregating agents. ADP (Sigma Chemical Co.) was used in a final concentration of 2×10^-5 M. Calf skin collagen (Sigma Chemical Co.) was used in a final concentration of 200 ug/ml.
(§2) The effect of AP4 A on rabbit platelet aggregation by ADP and collagen was tested. […] The anti-aggregatory effect of AP4 A was detected at a concentration of 2×10^-4 M (tenfold that of ADP) and increased in a dose-response pattern with increasing concentrations (FIG. 1).

[2] = tested on: rabbit platelet aggregation by collagen; assay: Collagen-induced aggregation of rabbit platelets
Method: as §1, §2

[3] = tested on: ADP-induced platelet aggregation; assay: Kinetics of ADP-induced platelet aggregation (double-reciprocal plot); conditions: FIG. 6
Method: Changes in light transmission reflecting the velocity of ADP-induced platelet aggregability was determined using a platelet aggregometer. Born, G.V.P., Nature 184:927-929 (1962). […] The Y points on the X-intercept are altered by factors [formula] where I is the concentration of inhibitor, and Ki is a characteristic constant. Points on the X-intercept are given by the expression [formula] intercept when [I]=0. When [I] is known, the equation can be solved for Ki.

Structure (SMILES): Nc1ncnc2c1ncn2[C@@H]1O[C@H](COP(=O)(O)OP(=O)(O)OP(=O)(O)OP(=O)(O)OC[C@H]2O[C@@H](n3cnc4c(N)ncnc43)[C@H](O)[C@@H]2O)[C@@H](O)[C@H]1O [AP4 A, diadenosine 5',5'"-p^1,p^4 -tetraphosphate]
- minimal effective concentration ([1]; Oryctolagus cuniculus, Platelet, ADP 2×10^-5 M (tenfold that of ADP), read-out: concentration at which the anti-aggregatory effect was detected): 200 µM
- effect of addition during ADP aggregation ([1]; added during aggregation, ADP 2×10^-5 M): blunted the secondary wave response to ADP and caused the dispersion of aggregated platelets
- inhibition of ADP-induced aggregation ([1]; same dose as tested with collagen): almost complete inhibition
- effect on preformed aggregates caused by collagen ([2]; added after aggregation, collagen 200 ug/ml (FIG. 2)): no effect
- effect on collagen-induced aggregation ([2]; added prior to induction, collagen 200 ug/ml (FIG. 3B)): inhibiting slightly
- effect on collagen-induced platelet aggregation ([2]; same dose that almost completely inhibits ADP-induced aggregation): little or no effect
- Ki ([3]; competitive inhibition of ADP-induced aggregation): 17.1 µM
- type / relative strength of inhibition ([3]; double reciprocal plot): competitive inhibition
